Where a name gives a salt, the structure may show the parent alone. Read-outs that look alike come from different tables or passages of the source.

In one series the test system is SH-SY5Y cells. In words: Cytotoxicity of the pharmacological inhibitors alone, 24-hour incubation. The procedure: An experiment was carried out to find out the working signaling pathway responsible for the neuroprotective activity of the Vaccinium bracteatum Thunb. leaf extracts against corticosterone-induced neuronal damage. In this experiment, SH-SY5Y cells were pretreated for 1 hour with wortmanin, rapamycin, H89, and PD98059, which are respective pharmacological inhibitors of the PI3K (phosphoinositide 3-kinase), mTOR, PKA (protein kinase A), and MAPK/ERK kinase pathways and then incubated for 2 hours with the hot-water extracts of Vaccinium bracteatum Thunb. leaves (3 μg/ml). Thereafter, 24 hours of incubation with corticosterone (1 mM) was followed by measuring cell viability through MTT assay.
For use in the experiment, the inhibitors alone were assayed for cytotoxicity.

The subject of series [1] is male ICR mice subjected to chronic restraint stress (CRS). As to the kind of experiment: Open field test (OFT) in chronic restraint stress (CRS) mice. The class given is in vivo. The conditions noted are these: three weeks of CRS; 5 minutes; positive control. On the procedure: Male ICR mice were purchased and subjected to chronic restraint stress (CRS). In this regard, a constant restraint stress was given by immobilizing the mice for 6 hours per day (a.m. 11 to p.m.5) in an acrylic box 20 cm in height and 7 cm in diameter for three weeks. The hot-water extracts of Vaccinium bracteatum Thunb. leaves were orally administered at each dose to the mice daily 30 min before the stress was given at the same time. For the control, the same volume of saline was administered. As a comparative group, escitalopram oxalate, which is an antidepressant, was orally administered. Animal behavior tests were performed the next day after 3 weeks of restraint stress stimulation. The open field test (OFT) was followed by the forced swimming test (FST). After the FST evaluation, whole blood was collected from the mice which were then autopsied to excise the hippocampus and prefrontal cortex. These brain tissues were immediately stored at −70° C. until use in experiments. The open field test (OFT) is an experimental test used to assay locomotor activity levels of animals to determine the anti-anxiety and anti-depressive effects of drugs. An OFT box is an arena having the dimensions of 60 cm diameter×20 cm height with the bottom surface divided into 25 cells. […] In the OFT box, the number of cells which the animal voluntarily crossed for 5 minutes was counted. […]

Series [2] shares this test system. In words: Forced swimming test (FST) in chronic restraint stress (CRS) mice. The conditions noted are these: three weeks of CRS; 10 mg/kg p.o. The class given is in vivo. The procedure:
In a forced swimming test (FST), which is a pre-swim test on the day before the main test (post-swim), tap water of around 25° C. was poured into a cylindrical water tank (about 20 cm in diameter, 40 cm in height) to the height of 15 cm from the bottom, after which the mice were put thereinto and forced to swim for 15 minutes. Then, the mice were withdrawn from the water, wiped with a dry towel, and returned to the breeding box. After 1 or 6 days of drug administration, the main test (post-swim) was performed and video was taken with forced swimming for 6 minutes with the mice in the cylinder. In the recorded images for the five minutes exclusive of the first one minute, the animal behavior was classified into three types for analysis: the animals were floating in the water, showing a slight movement, with only a part of the upper body including the face exposed on the water face (immobility behavior); the animals were swimming around the cylinder in the horizontal direction while splashing the water with their forepaws and rear paws (swimming behavior); and the animals were making the fierce movement of pulling the paws out of the water, scrapping the wall (climbing behavior). Times for the three movements were measured. Male ICR mice were purchased and subjected to chronic restraint stress (CRS). In this regard, a constant restraint stress was given by immobilizing the mice for 6 hours per day (a.m. 11 to p.m.5) in an acrylic box 20 cm in height and 7 cm in diameter for three weeks. The hot-water extracts of Vaccinium bracteatum Thunb. leaves were orally administered at each dose to the mice daily 30 min before the stress was given at the same time. For the control, the same volume of saline was administered. As a comparative group, escitalopram oxalate, which is an antidepressant, was orally administered. Animal behavior tests were performed the next day after 3 weeks of restraint stress stimulation. The open field test (OFT) was followed by the forced swimming test (FST). […]

The subject of another series is male ICR mice. As to the kind of experiment: Forced swimming test (FST) in normal mice after 1 or 6 days of oral administration. The class given is in vivo. The conditions noted are these: comparative group, dose not given. On the procedure: For use in assaying an antidepressant effect of the Vaccinium bracteatum Thunb. leaf extracts, male ICR mice, 6 weeks of age, were purchased from […], Korea. The animals were acclimated to a certain condition in an animal breeding room (temperature: 22±2° C., humidity: 50±5%, contrast: 12-hour light/12-hour dark cycle) for one week before use. Male ICR mice were orally administered the Vaccinium bracteatum Thunb. leaf extract the present invention while escitalopram oxalate was used as an antidepressant for a comparative group. Oral administration was conducted for 1 or 6 days according to the experiment. In a forced swimming test (FST), which is a pre-swim test on the day before the main test (post-swim), tap water of around 25° C. was poured into a cylindrical water tank (about 20 cm in diameter, 40 cm in height) to the height of 15 cm from the bottom, after which the mice were put thereinto and forced to swim for 15 minutes. Then, the mice were withdrawn from the water, wiped with a dry towel, and returned to the breeding box. After 1 or 6 days of drug administration, the main test (post-swim) was performed and video was taken with forced swimming for 6 minutes with the mice in the cylinder. In the recorded images for the five minutes exclusive of the first one minute, the animal behavior was classified into three types for analysis: the animals were floating in the water, showing a slight movement, with only a part of the upper body including the face exposed on the water face (immobility behavior); the animals were swimming around the cylinder in the horizontal direction while splashing the water with their forepaws and rear paws (swimming behavior); and the animals were making the fierce movement of pulling the paws out of the water, scrapping the wall (climbing behavior). Times for the three movements were measured.

A further series concerns corticosterone. As to the kind of experiment: Serum stress hormone corticosterone level (ELISA) in normal mice after six days of administration. The conditions noted are these: comparative group, dose not given. It counts as in vivo. On the procedure: After six days of drug administration to mice in a normal state, effects on the level of the stress hormone corticosterone in sera of the mice were measured using the Abnova ELISA kit according to the manufacturer's instruction.

With `O=S(=O)(NCCNC/C=C/c1ccc(Br)cc1)c1cccc2cnccc12` [H89], the “cytotoxicity of inhibitor alone” value with SH-SY5Y cells is listed as “No cytotoxicity”.

Consider `COc1cccc(-c2cc(=O)c3ccccc3o2)c1N` [PD98059], for which the “cytotoxicity of inhibitor alone” value with SH-SY5Y cells is recorded as “No cytotoxicity”.

As for `CN(C)CCC[C@@]1(c2ccc(F)cc2)OCc2cc(C#N)ccc21` [escitalopram oxalate], the “number of crossing (locomotor activity)” value in series [1] is listed as 182.73±5.60 crossings. In addition, in series [2], the climbing time worked out at 105.23 ± 15.37 s, the immobility time was 154.74 ± 14.80 s and the swimming time was determined as 146.58 ± 14.84 s. In the series with male ICR mice (one-day administration), this compound yielded a climbing time of 12.43 ± 3.47 s and an immobility time of 194.65 ± 11.55 s. Moreover, in the series on male ICR mice (six-day administration), the immobility time worked out at 169.65 ± 7.15 s and the swimming time stood at 128.16 ± 6.65 s. For the same compound, the stress hormone corticosterone in sera in the series with corticosterone is 765 ± 97.5 ng/mL.

For the compound `CO[C@H]1C[C@@H]2CC[C@@H](C)[C@@](O)(O2)C(=O)C(=O)N2CCCC[C@H]2C(=O)O[C@H]([C@H](C)C[C@@H]2CC[C@@H](O)[C@H](OC)C2)CC(=O)[C@H](C)/C=C(\C)[C@@H](O)[C@@H](OC)C(=O)[C@H](C)C[C@H](C)/C=C/C=C/C=C/1C` [rapamycin], the “cytotoxicity of inhibitor alone” value in the series on SH-SY5Y cells is given as “No cytotoxicity”.

With `COC[C@H]1OC(=O)c2coc3c2[C@@]1(C)C1=C(C3=O)[C@@H]2CCC(=O)[C@@]2(C)C[C@H]1OC(C)=O` [wortmanin], the “cytotoxicity of inhibitor alone” value in the series on SH-SY5Y cells (24-hour incubation, inhibitor alone) is on record as “except for the PI3K inhibitor (wortmanin)”.

For the origin of these results see US11944661B2, “Pharmaceutical composition containing extract of leaves of Vaccinium bracteatum Thunb. for prevention or treatment of stress disease and depression” (JEONNAM BIOINDUSTRY FOUNDATION, priority 2017, dated 2024).
